Assay results: ChEMBL document CHEMBL1133639, “Subtype-selective N-methyl-D-aspartate receptor antagonists: synthesis and biological evaluation of 1-(heteroarylalkynyl)-4-benzylpiperidines” (J Med Chem, 2000)
pIC50: −log10 of the molar value.

Key:
[1] = biological target: Glutamate receptor ionotropic, NMDA 1 (Homo sapiens, UniProt Q05586+Q12879); experiment: Concentration required for 50% Inhibition of responses at cloned NR1A/2A NMDA expressed in Xenopus oocytes; format: cell-based, Oocyte
[2] = biological target: Glutamate receptor ionotropic, NMDA 1 (Homo sapiens, UniProt Q05586+Q14957); experiment: Concentration required for 50% Inhibition of responses at cloned NR1A/2C NMDA expressed in Xenopus oocytes; format: cell-based, Oocyte
[3] = biological target: Glutamate receptor ionotropic, NMDA 1 (Homo sapiens, UniProt Q05586); experiment: Concentration required for 50% Inhibition of responses at cloned NR1A/2AB NMDA expressed in Xenopus oocytes; format: cell-based, Oocyte
[4] = biological target: Glutamate receptor ionotropic, NMDA 2C (Rattus norvegicus, UniProt P35439+Q00961); experiment: Concentration required for 50% Inhibition of responses at cloned NR1A/2C N-methyl-D-aspartate (NMDA) expressed in Xenopus oocytes; format: cell-based, Oocyte
Chain of Glutamate receptor ionotropic, NMDA 2C (Q00961 whole entry, one chain of several): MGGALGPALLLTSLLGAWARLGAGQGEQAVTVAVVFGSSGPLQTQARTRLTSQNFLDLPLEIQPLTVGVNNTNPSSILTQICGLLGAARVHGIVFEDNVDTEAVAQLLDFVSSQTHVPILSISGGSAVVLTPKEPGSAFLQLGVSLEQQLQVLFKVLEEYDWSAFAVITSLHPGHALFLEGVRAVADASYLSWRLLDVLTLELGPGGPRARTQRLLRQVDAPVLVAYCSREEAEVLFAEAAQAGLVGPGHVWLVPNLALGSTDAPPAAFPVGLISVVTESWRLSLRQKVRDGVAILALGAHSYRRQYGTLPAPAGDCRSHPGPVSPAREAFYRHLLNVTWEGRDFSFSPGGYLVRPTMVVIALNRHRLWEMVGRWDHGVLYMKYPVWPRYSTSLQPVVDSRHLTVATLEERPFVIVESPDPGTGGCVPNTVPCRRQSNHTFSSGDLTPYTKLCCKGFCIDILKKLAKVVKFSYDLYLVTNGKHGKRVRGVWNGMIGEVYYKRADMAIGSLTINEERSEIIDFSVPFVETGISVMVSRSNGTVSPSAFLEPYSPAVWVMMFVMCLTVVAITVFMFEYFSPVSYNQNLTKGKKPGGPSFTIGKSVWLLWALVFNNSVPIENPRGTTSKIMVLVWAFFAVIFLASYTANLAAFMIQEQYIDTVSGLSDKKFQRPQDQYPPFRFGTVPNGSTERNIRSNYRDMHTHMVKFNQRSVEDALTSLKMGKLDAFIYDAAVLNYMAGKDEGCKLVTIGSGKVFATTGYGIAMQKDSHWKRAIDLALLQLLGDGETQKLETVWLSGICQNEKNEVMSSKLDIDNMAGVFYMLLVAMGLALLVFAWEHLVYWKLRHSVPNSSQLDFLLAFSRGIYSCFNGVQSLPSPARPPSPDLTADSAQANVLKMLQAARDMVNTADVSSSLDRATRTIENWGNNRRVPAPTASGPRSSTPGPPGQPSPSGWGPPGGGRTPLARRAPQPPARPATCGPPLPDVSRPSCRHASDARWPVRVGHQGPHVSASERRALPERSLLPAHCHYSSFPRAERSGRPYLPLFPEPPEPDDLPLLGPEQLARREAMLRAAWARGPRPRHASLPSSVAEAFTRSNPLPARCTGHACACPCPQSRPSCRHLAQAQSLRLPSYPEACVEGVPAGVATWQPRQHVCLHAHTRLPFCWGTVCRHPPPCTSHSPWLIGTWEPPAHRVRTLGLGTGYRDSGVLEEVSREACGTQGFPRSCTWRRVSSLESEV

Rattus norvegicus [5] = experiment: Lowest oral dose that shows significant potentiation of total contraversive rotations over 3 hr caused by L-DOPA (10mg/kg, sc) in 6-hydroxydopamine-lesioned rats (n=8)administered perorally; format: functional; conditions: read-out: MED
[6] = biological target: T1, Adrenergic receptor alpha-1 (Rattus norvegicus, UniProt P15823+P23944+P43140); experiment: Displacement of [3H]prazosin at alpha-1 adrenergic receptor in rat brain cortices (n=1); format: tissue-based
T1 sequence (P15823 whole entry): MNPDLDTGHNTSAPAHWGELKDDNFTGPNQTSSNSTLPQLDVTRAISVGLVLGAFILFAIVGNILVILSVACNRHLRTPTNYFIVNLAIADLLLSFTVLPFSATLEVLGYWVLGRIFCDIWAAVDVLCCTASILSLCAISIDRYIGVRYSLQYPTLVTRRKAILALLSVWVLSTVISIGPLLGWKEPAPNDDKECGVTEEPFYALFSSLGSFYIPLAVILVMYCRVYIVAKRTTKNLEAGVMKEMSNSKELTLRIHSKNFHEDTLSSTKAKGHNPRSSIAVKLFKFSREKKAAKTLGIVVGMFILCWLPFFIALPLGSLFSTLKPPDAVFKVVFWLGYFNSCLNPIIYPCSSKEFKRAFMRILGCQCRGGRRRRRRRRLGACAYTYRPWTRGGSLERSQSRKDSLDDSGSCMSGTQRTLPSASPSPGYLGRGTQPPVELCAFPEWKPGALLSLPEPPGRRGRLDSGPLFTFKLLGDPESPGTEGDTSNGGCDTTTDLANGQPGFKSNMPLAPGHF
T1 sequence (P23944 whole entry): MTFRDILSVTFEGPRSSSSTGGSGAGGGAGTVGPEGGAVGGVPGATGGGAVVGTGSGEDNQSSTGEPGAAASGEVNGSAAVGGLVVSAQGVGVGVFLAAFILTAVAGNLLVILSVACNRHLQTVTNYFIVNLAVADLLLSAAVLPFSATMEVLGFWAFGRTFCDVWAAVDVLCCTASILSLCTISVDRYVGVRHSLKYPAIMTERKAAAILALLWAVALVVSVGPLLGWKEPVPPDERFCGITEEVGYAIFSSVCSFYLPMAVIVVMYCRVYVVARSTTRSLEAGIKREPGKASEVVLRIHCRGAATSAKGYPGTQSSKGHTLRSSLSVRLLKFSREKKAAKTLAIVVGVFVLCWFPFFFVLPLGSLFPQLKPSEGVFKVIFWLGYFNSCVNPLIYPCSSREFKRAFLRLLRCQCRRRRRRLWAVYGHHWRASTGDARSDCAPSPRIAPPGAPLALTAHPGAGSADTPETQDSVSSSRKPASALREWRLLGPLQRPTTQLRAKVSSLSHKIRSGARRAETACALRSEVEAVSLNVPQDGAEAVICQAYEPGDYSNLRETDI
T1 sequence (P43140 whole entry): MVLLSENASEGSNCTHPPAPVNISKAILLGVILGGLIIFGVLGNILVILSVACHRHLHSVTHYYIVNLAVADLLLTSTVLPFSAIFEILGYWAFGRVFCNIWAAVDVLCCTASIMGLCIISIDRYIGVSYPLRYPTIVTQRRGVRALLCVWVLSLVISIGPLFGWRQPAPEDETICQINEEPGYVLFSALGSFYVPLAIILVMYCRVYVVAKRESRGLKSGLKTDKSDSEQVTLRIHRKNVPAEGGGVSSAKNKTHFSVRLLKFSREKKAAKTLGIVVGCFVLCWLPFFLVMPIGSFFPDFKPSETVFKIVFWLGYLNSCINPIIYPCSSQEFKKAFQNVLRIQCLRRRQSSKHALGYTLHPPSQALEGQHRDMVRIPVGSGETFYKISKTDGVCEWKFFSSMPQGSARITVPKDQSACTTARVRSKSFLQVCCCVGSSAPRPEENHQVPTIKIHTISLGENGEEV

D(2) dopamine receptor = D(2) dopamine receptor (Rattus norvegicus, UniProt P61169); experiment: Displacement of [3H]raclopride at Dopamine receptor D2 in brain striata (n=1); format: tissue-based
Chain of D(2) dopamine receptor (P61169 whole entry): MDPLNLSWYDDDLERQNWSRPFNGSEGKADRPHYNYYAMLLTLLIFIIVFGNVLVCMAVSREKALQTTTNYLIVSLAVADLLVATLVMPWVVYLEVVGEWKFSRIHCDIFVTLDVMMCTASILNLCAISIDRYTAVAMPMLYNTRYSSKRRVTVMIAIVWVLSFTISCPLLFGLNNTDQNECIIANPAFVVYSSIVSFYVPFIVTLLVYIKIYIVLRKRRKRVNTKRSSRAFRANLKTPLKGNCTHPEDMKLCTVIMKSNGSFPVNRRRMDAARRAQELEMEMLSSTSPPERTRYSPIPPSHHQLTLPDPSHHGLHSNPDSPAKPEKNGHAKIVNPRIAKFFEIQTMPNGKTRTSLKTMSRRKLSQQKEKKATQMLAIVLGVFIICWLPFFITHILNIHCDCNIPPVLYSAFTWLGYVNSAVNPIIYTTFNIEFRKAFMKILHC

[7] = biological target: Glutamate NMDA receptor; Grin1/Grin2a (Rattus norvegicus, UniProt P35439+Q00959); experiment: Concentration required for 50% Inhibition of responses at cloned NR1A/2A N-methyl-D-aspartate (NMDA) expressed in Xenopus oocytes; format: cell-based, Oocyte
Chain of Glutamate NMDA receptor; Grin1/Grin2a (Q00959 whole entry, looked up, other chains not shown): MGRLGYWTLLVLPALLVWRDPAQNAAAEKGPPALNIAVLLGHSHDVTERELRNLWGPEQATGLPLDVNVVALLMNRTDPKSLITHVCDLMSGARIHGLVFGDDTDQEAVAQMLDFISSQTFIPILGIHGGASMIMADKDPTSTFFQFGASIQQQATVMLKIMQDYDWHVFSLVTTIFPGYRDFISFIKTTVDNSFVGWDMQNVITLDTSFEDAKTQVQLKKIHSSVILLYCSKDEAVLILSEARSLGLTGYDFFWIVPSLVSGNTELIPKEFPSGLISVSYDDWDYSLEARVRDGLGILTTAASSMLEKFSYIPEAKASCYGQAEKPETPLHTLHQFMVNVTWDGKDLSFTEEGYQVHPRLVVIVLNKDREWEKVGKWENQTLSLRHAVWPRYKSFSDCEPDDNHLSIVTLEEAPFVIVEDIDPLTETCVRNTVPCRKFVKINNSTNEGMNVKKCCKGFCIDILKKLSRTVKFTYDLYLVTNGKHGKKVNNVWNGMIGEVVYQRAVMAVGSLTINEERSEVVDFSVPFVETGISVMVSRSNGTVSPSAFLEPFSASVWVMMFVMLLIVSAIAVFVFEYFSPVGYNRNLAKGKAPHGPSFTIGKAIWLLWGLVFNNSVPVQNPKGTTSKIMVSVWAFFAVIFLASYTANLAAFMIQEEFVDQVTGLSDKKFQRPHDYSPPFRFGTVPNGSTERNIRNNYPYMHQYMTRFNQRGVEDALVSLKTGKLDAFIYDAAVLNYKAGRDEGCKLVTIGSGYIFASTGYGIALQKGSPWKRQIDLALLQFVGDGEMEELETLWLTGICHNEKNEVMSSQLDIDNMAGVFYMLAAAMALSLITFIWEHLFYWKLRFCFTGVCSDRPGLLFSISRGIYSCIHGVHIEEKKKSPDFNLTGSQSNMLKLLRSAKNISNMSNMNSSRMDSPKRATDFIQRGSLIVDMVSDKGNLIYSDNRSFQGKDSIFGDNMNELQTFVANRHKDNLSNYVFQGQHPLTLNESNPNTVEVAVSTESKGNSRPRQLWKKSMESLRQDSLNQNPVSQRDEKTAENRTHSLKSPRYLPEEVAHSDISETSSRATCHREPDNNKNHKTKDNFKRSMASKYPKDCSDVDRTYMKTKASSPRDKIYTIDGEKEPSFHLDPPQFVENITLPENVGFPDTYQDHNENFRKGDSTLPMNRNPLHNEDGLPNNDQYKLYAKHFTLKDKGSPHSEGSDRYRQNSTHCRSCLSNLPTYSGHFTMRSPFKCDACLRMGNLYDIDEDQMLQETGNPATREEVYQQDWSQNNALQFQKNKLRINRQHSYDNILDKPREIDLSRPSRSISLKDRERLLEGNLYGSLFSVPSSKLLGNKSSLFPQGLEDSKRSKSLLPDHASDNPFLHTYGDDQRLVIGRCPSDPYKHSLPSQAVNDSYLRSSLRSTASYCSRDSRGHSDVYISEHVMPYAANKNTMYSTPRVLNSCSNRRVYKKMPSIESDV

[8] = biological target: T1, Adrenergic receptor alpha-1; experiment: Displacement of [3H]-prazosin at alpha-1 adrenergic receptor inat brain cortices (n=1)
Rattus norvegicus [9] = experiment: Lowest oral dose that shows significant potentiation of total contraversive rotations over 3 hr caused by L-DOPA (10mg/kg, sc) in 6-hydroxydopamine-lesioned rats (n=8) administered perorally; format: functional; conditions: read-out: MED
Rattus norvegicus [10] = experiment: Lowest oral dose that shows significant potentiation of total contraversive rotations over 3 hr caused by L-DOPA (10mg/kg, sc) in 6-hydroxydopamine-lesioned rats (n=8);administered perorally; format: functional; conditions: read-out: MED

Structure (SMILES)	pIC50 [1]	pIC50 [2]	pIC50 [3]	pIC50 (D(2) dopamine receptor)	further results
O=c1[nH]c2ccc(C#CCCN3CCC(Cc4ccccc4)CC3)cc2o1	4.41	< 4.00	6.92		
C(#Cc1ccc2[nH]ccc2c1)CN1CCC(Cc2ccccc2)CC1	< 4.00	< 4.00	4.82		
O=C1Nc2ccc(C#CCCN3CCC(Cc4ccccc4)CC3)cc2C1=O	4.24		5.74		pIC50 [4]: < 4.00
Cn1c(=O)[nH]c2cc(C#CCN3CCC(Cc4ccccc4)CC3)ccc21	4.05	< 4.00	4.21		
C(#Cc1ccc2nn[nH]c2c1)CCN1CCC(Cc2ccccc2)CC1	< 4.00	< 4.00	6.66		
C(#Cc1ccc2[nH]ncc2c1)CN1CCC(Cc2ccccc2)CC1	< 4.00	< 4.00	6.42		
Cn1c(=O)[nH]c2ccc(C#CCN3CCC(Cc4ccccc4)CC3)cc21		< 4.00			
O=C1Cc2cc(C#CCCN3CCC(Cc4ccccc4)CC3)ccc2N1	4.28	< 4.00	6.49		
C(#Cc1ccc2[nH]nnc2c1)CN1CCC(Cc2ccccc2)CC1	< 4.00	< 4.00	6.38		
S=c1[nH]c2ccc(C#CCCN3CCC(Cc4ccccc4)CC3)cc2[nH]1	4.12	< 4.00	6.74		
S=c1[nH]c2ccc(C#CCN3CCC(Cc4ccccc4)CC3)cc2[nH]1	4.60	< 4.00	7.80		
O=C1Cc2cc(C#CCN3CCC(Cc4ccccc4)CC3)ccc2N1	< 4.00	< 4.00	6.96		
Oc1nc2cc(C#CCN3CCC(Cc4ccccc4)CC3)ccc2[nH]1				5.59	minimal effective dose (Rattus norvegicus [5]): 10 mg/kg; IC50 [6]: 0.5 µM
C(#Cc1ccc2cc[nH]c2c1)CCN1CCC(Cc2ccccc2)CC1					pIC50 [7]: < 4.00; pIC50 [4]: < 4.00
O=c1[nH]c2ccc(C#CCCN3CCC(Cc4ccccc4)CC3)cc2[nH]1	4.41	< 4.00	7.05		
Oc1nc2cc(C#CCN3CCC(Cc4ccc(F)cc4)CC3)ccc2[nH]1	4.42	< 4.00	8.09	5.77	minimal effective dose (Rattus norvegicus [5]): 30 mg/kg; IC50 [6]: 1.2 µM
Oc1nc2cc(C#CCN3CCC(O)(Cc4ccc(F)cc4)CC3)ccc2[nH]1				4.39	IC50 [8]: 18 µM; minimal effective dose (Rattus norvegicus [9]): > 30 mg/kg
Oc1nc2cc(C#CCN3CCC(Cc4cccc(F)c4)CC3)ccc2[nH]1	< 4.00	< 4.00	8.21	5.41	minimal effective dose (Rattus norvegicus [5]): > 30 mg/kg; IC50 [6]: 0.7 µM
C(#Cc1ccc2[nH]ncc2c1)CCN1CCC(Cc2ccccc2)CC1	4.02	< 4.00	6.60		
O=C1COc2cc(C#CCCN3CCC(Cc4ccccc4)CC3)ccc2N1	< 4.00	< 4.00	5.96		
Oc1nc2cc(C#CCN3CCC(Cc4ccc(Cl)cc4)CC3)ccc2[nH]1			7.72	5.43	IC50 [6]: 5.8 µM; minimal effective dose (Rattus norvegicus [10]): 30 mg/kg
Oc1nc2ccc(C#CCN3CCC(Cc4ccccc4)CC3)cc2o1			7.31		
COc1ccc(CC2CCN(CC#Cc3ccc4[nH]c(O)nc4c3)CC2)cc1	< 4.00	< 4.00	7.59	5.00	minimal effective dose (Rattus norvegicus [5]): > 30 mg/kg; IC50 [6]: 17 µM
Oc1nc2cc(C#CCN3CCC(O)(Cc4ccccc4)CC3)ccc2[nH]1	< 4.00	< 4.00	7.72	4.07	IC50 [6]: 55 µM
Cc1ccc(CC2CCN(CC#Cc3ccc4[nH]c(O)nc4c3)CC2)cc1			7.77	4.85	minimal effective dose (Rattus norvegicus [5]): 30 mg/kg; IC50 [6]: 3.1 µM
Oc1ccc(C#CCN2CCC(Cc3ccccc3)CC2)cc1					pIC50 [7]: < 4.00; pIC50 [4]: < 4.00
